For this experiment, the target named is T1, viral kinase pUL-97 (Human cytomegalovirus, UniProt P16788).
T1 construct: The pUL-97 gene was cloned into a baculovirus vector; GST (glutathione S-transferase) (N); made in house; host or cells: Sf9 insect cells, baculovirus
The experiment in a line: UL97 kinase assay on Immobilon plate. The class given is biochemical. To be noted: inhibition of UL 97 kinase activity, read-out: Activity Class [A, B, C]. An outline of the steps:
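Compound was titrated into a radiometric reaction of Sf9-expressed GST-UL97 kinase, incubated 1 h at 30 °C in Tris-HCl pH 7.5/MnCl2/DTT buffer before EDTA stop. MBP substrate and ATP (3 μM in the added assay buffer) were supplied with γ-[33P]ATP. Labelled product bound to Immobilon filter was washed and counted by scintillation.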

Where [1] appears, read: class by IC50 / % inhibition at 10 or 100 μM.
[2] abbreviates: class by IC50 / % inhibition at 10 μM or 100 μM.

pIC50: −log10 of the molar value. Read-outs that look alike come from different tables or passages of the source.

T1 sequence (P16788 whole entry): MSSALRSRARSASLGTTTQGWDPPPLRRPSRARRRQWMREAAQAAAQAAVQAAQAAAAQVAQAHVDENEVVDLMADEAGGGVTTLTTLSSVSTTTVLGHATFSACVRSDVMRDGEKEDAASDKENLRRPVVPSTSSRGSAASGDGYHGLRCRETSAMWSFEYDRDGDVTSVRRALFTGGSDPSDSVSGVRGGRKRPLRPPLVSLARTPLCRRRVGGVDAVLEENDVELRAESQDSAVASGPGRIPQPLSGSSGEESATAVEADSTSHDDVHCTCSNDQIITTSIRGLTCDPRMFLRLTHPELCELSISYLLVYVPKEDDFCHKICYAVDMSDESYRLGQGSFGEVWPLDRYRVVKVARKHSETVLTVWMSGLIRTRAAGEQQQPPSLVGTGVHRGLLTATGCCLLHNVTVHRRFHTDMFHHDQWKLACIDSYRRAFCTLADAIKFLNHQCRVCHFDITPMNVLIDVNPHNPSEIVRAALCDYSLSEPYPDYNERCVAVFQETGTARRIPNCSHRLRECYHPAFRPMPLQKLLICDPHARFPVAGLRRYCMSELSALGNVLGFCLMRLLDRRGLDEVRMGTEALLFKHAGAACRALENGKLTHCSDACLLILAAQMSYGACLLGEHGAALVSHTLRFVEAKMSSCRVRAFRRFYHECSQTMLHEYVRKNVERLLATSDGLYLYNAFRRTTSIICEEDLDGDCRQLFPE

`COc1ccc(N2CCN(c3cncc(-c4cc(C)cc(C)c4)n3)CC2)cc1OC` [compound 170, 4-(3,4-Dimethoxy-phenyl)-6′-(3,5-dimethyl-phenyl)-3,4,5,6-tetrahydro-2H-[1,2′]bipyrazinyl]: the pIC50 under setting [1] was 4.00 to 5.00.

As for `c1ccc(C2CCN(c3cncc(-c4ccsc4)n3)CC2)cc1` [compound 336, 2-(4-Phenyl-piperidin-1-yl)-6-thiophen-3-yl-pyrazine], the pIC50 under setting [2] was 5.00 to 6.00.

On to `COc1cccc(-c2cncc(N3CCN(c4ccncc4)CC3)n2)c1` [compound 78, 6′-(3-Methoxy-phenyl)-4-pyridin-4-yl-3,4,5,6-tetrahydro-2H-[1,2′]bipyrazinyl], for which the pIC50 under setting [1] is 5.00 to 6.00.

In the case of `Fc1cc(-c2cncc(N3CCN(c4ccccc4)CC3)n2)ccc1-c1ccccc1` [compound 96, 6′-(2-Fluoro-biphenyl-4-yl)-4-phenyl-3,4,5,6-tetrahydro-2H-[1,2′]bipyrazinyl], the pIC50 under setting [1] was 4.00 to 5.00. For the molecule `CN(C)c1ccc(-c2cncc(N3CCN(c4cccc(C(F)(F)F)c4)CC3)n2)cc1` [compound 216, Dimethyl-{4-[4-(3-trifluoromethyl-phenyl)-3,4,5,6-tetrahydro-2H-[1,2′]bipyrazinyl-6′-yl]-phenyl}-amine], the pIC50 under setting [2] was 4.00 to 5.00.

For `Clc1ccc(N2CCN(c3cncc(-c4cccc5ccccc45)n3)CC2)cc1Cl` [compound 287, 4-(3,4-Dichloro-phenyl)-6′-naphthalen-1-yl-3,4,5,6-tetrahydro-2H-[1,2′]bipyrazinyl], the pIC50 under setting [2] was 4.00 to 5.00. With `COc1cccc(N2CCN(c3cncc(-c4ccccc4)n3)CC2)c1` [compound 365, 4-(3-Methoxy-phenyl)-6′-phenyl-3,4,5,6-tetrahydro-2H-[1,2′]bipyrazinyl], the pIC50 under setting [2] was 4.00 to 5.00. With `Cc1cccc(-c2cncc(N3CCN(c4ccc(Cl)cc4)CC3)n2)c1` [compound 325, 4-(4-Chloro-phenyl)-6′-m-tolyl-3,4,5,6-tetrahydro-2H-[1,2′]bipyrazinyl], the pIC50 under setting [2] is 4.00 to 5.00. As to `Cc1ccccc1-c1cncc(N2CCN(c3ccncc3)CC2)n1` [compound 256, 4-Pyridin-4-yl-6′-o-tolyl-3,4,5,6-tetrahydro-2H-[1,2′]bipyrazinyl], the pIC50 under setting [2] is 4.00 to 5.00.

Turning to `FC(F)(F)c1cccc(N2CCN(c3cncc(-c4ccc5ccccc5c4)n3)CC2)c1` [compound 252, 6′-Naphthalen-2-yl-4-(3-trifluoromethyl-phenyl)-3,4,5,6-tetrahydro-2H-[1,2′]bipyrazinyl], the pIC50 under setting [2] is 4.00 to 5.00. Take `COc1ccccc1N1CCN(c2cncc(-c3ccccc3C)n2)CC1` [compound 87, 4-(2-Methoxy-phenyl)-6′-o-tolyl-3,4,5,6-tetrahydro-2H-[1,2′]bipyrazinyl]: the pIC50 under setting [1] is 4.00 to 5.00. Regarding `Clc1cccc(N2CCN(c3cncc(-c4ccc5ccccc5c4)n3)CC2)c1` [compound 81, 4-(3-Chloro-phenyl)-6′-naphthalen-2-yl-3,4,5,6-tetrahydro-2H-[1,2′]bipyrazinyl], the pIC50 under setting [1] was 4.00 to 5.00. Regarding `c1ccc(N2CCN(c3cncc(-c4ccsc4)n3)CC2)nc1` [compound 350, 4-Pyridin-2-yl-6′-thiophen-3-yl-3,4,5,6-tetrahydro-2H-[1,2′]bipyrazinyl], the pIC50 under setting [2] was 5.00 to 6.00. Turning to `Cc1ccc(N2CCN(c3cncc(-c4ccc(N(C)C)cc4)n3)CC2)cc1` [compound 176, Dimethyl-[4-(4-p-tolyl-3,4,5,6-tetrahydro-2H-[1,2′]bipyrazinyl-6′-yl)-phenyl]-amine], the pIC50 under setting [1] was 4.00 to 5.00. With `c1ccc2c(-c3cncc(N4CCN(c5ccncc5)CC4)n3)csc2c1` [compound 222, 6′-Benzo[b]thiophen-3-yl-4-pyridin-4-yl-3,4,5,6-tetrahydro-2H-[1,2′]bipyrazinyl], the pIC50 under setting [2] is 5.00 to 6.00.

Take `OCc1ccc(-c2cncc(N3CCN(c4cccc5[nH]ccc45)CC3)n2)cc1` [compound 61, {4-[4-(1H-Indol-4-yl)-3,4,5,6-tetrahydro-2H-[1,2′]bipyrazinyl-6′-yl]-phenyl}-methanol]: the pIC50 under setting [1] is 4.00 to 5.00. Regarding `NC(=O)c1ccc(-c2cncc(N3CCN(C(=O)c4ccco4)CC3)n2)cc1` [compound 34, 4-[4-(Furan-2-carbonyl)-3,4,5,6-tetrahydro-2H-[1,2′]bipyrazinyl-6′-yl]-benzamide], the pIC50 under setting [1] is over 6.00.

As to `CC(=O)c1ccc(N2CCN(c3cncc(-c4csc5ccccc45)n3)CC2)cc1` [compound 152, 1-[4-(6′-Benzo[b]thiophen-3-yl-2,3,5,6-tetrahydro-[1,2′]bipyrazinyl-4-yl)-phenyl]-ethanone], the pIC50 under setting [1] is 5.00 to 6.00. As to `CC(=O)c1ccc(-c2cncc(N3CCN(c4ccc(F)cc4F)CC3)n2)cc1` [compound 275, 1-{4-[4-(2,4-Difluoro-phenyl)-3,4,5,6-tetrahydro-2H-[1,2′]bipyrazinyl-6′-yl]-phenyl}-ethanone], the pIC50 under setting [2] is 5.00 to 6.00.

For the molecule `COc1ccccc1N1CCN(c2cncc(-c3ccsc3)n2)CC1` [compound 85, 4-(2-Methoxy-phenyl)-6′-thiophen-3-yl-3,4,5,6-tetrahydro-2H-[1,2′]bipyrazinyl], the pIC50 under setting [1] is 4.00 to 5.00.

In the case of `Fc1cccc(-c2cncc(N3CCN(c4ccccn4)CC3)n2)c1` [compound 56, 6′-(3-Fluoro-phenyl)-4-pyridin-2-yl-3,4,5,6-tetrahydro-2H-[1,2′]bipyrazinyl], under setting [1], the pIC50 is 4.00 to 5.00. Regarding `CC(C)(C)c1ccc(-c2cncc(N3CCN(c4ccncc4)CC3)n2)cc1` [compound 257, 6′-(4-tert-Butyl-phenyl)-4-pyridin-4-yl-3,4,5,6-tetrahydro-2H-[1,2′]bipyrazinyl], the pIC50 under setting [2] was 5.00 to 6.00. For `FC(F)(F)c1ccc(-c2cncc(N3CCN(c4cnccn4)CC3)n2)cc1` [compound 345, 6-(4-Trifluoromethyl-phenyl)-2′,3′,5′,6′-tetrahydro-[2,1′;4′,2″]terpyrazine], under setting [2], the pIC50 is 5.00 to 6.00. `CSc1ccc(-c2cncc(N3CCN(c4ccc(C)cc4)CC3)n2)cc1` [compound 137, 6′-(4-Methylsulfanyl-phenyl)-4-p-tolyl-3,4,5,6-tetrahydro-2H-[1,2′]bipyrazinyl]: the pIC50 under setting [1] is 5.00 to 6.00. The same measure, in the same setting: the result for `Fc1ccc(-c2cncc(N3CCN(c4ccccc4)CC3)n2)cc1` [compound 111, 6′-(4-Fluoro-phenyl)-4-phenyl-3,4,5,6-tetrahydro-2H-[1,2′]bipyrazinyl] reads 5.00 to 6.00. Regarding `OCc1ccccc1-c1cncc(N2CCN(c3ccc(F)cc3F)CC2)n1` [compound 202, {2-[4-(2,4-Difluoro-phenyl)-3,4,5,6-tetrahydro-2H-[1,2′]bipyrazinyl-6′-yl]-phenyl}-methanol], the pIC50 under setting [2] was 4.00 to 5.00. On to `NC(=O)c1ccc(-c2cncc(NCCc3c[nH]c4ccccc34)n2)cc1` [compound 35, 4-{6-[2-(1H-Indol-3-yl)-ethylamino]-pyrazin-2-yl}-benzamide], for which the pIC50 under setting [1] is over 6.00.

As to `c1ccc(Oc2ccc(-c3cncc(N4CCN(c5ccncc5)CC4)n3)cc2)cc1` [compound 163, 6′-(4-Phenoxy-phenyl)-4-pyridin-4-yl-3,4,5,6-tetrahydro-2H-[1,2′]bipyrazinyl], the pIC50 under setting [1] is 5.00 to 6.00.

As to `Cc1cccc(-c2cncc(N3CCN(c4ccccc4F)CC3)n2)c1C` [compound 250, 6′-(2,3-Dimethyl-phenyl)-4-(2-fluoro-phenyl)-3,4,5,6-tetrahydro-2H-[1,2′]bipyrazinyl], the pIC50 under setting [2] is 4.00 to 5.00.
